Experimental findings from patent US6881728B1, “14-β, 17-α-hydroxymethylandrostane derivatives as androgens” (Akzo Nobel N.V., priority 1999, dated 2005) are described below.

Each structure is given as a SMILES string.

In the assay the target is T1, human androgen receptor (Homo sapiens, UniProt P10275).
T1 construct: host or cells: MCF-7 cytosol (endogenous) or CHO cells transfected with hAR
T1 sequence (P10275 1-920): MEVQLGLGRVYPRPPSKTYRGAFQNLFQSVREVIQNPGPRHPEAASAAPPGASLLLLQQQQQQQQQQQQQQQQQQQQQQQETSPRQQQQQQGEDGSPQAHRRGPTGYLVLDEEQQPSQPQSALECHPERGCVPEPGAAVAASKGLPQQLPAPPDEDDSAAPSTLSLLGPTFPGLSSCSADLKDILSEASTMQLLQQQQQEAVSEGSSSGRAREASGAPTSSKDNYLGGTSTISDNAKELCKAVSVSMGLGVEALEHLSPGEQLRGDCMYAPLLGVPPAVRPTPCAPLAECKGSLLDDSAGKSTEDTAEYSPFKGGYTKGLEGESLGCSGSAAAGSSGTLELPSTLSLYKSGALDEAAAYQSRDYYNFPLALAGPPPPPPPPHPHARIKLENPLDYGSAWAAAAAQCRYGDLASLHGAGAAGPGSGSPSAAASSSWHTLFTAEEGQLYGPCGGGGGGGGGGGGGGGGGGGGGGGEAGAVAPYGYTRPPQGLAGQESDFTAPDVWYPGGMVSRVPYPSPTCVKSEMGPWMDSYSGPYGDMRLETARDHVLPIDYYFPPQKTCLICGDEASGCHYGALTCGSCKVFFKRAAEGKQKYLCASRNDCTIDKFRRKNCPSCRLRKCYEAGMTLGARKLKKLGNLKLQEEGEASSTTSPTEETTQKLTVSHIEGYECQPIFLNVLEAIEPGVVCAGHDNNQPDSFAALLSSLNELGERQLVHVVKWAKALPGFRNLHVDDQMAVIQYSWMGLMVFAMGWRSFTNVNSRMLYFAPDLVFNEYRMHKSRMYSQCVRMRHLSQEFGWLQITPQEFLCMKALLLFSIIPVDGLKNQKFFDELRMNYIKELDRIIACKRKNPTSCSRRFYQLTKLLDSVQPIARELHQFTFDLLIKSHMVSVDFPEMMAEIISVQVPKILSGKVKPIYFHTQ
Nature of the assay: androgenic activity rating (procedures described above; which one underlies the rating is not stated). Set-up: key: +: androgenic activity found; ++: high androgenic activity; +++: excellent androgenic activity. As to the method:
Androgenic activity can be measured in various ways. Thus, the potency of androgens can be determined in vitro using the cytoplasmic androgen receptor from human breast tumor cells (MCF-7 cell line); see Bergink, E. W. et al, Comparison of the receptor binding properties of nandrolone and testosterone under in vitro and in vivo conditions, J. Steroid Biochem. 22, 831-836 (1985). It is also possible to use Chinese hamster ovary (CHO) cells transfected with the human androgen receptor (incubation time 16 h, temperature 4° C.) and compared with the affinity of 5α-dihydrotestosterone [according to the procedure described by Bergink, E. W. et al, J. Steroid Biochem. 12, 1563-1570 (1983)]. The transactivative androgen activity of the compounds of the invention can be measured, e.g. in Chinese hamster ovary cells (CHO) transfected with the human androgen receptor (hAR), in combination with a mouse mammary tumor virus (MMTV), and luciferase […] (incubation time 16 h, temperature 37° C.) and compared with the activity of 5α-dihydrotestosterone [according to the procedure described by Schoonen, W. G. E. J. et al, Analyt. Biochem. 261, 222-224 (1998)]. For the in vivo potency determination of androgens the classical Hershberger test can be used. In this test the androgenic (increase in prostate weight) and anabolic activities [increase of the musculus levator ani (MLA)] of a compound are tested in immature castrated rats after daily administration for 7 days; see Hershberger, L. G. et al, Myotrophic activity of 19-Nortestosterone and other steroids determined by modified levator ani muscle method, Proceedings of the society for experimental biology and medicine 83, 175-180 (1953). Additionally, the effect of an androgenic compound on LH suppression can be tested in mature castrated rats according to Kumar, N. et al, The biological activity of 7alpha-methyl-19-nortestosterone is not amplified in male reproductive tract as is that of testosterone, Endocrinology 130, 3677-3683 (1992).
A plurality of compounds according to the invention were tested for androgenic activity (the procedures for which have been described above) and rated in the Table below according to the following scheme: • + androgenic activity found; • ++ high androgenic activity; • +++ excellent androgenic activity; • nd no data available
Regarding `CCCC[C@H]1CC[C@H](C(=O)OC[C@@H]2CC[C@@H]3[C@H]4[C@H](CC[C@]23C)[C@H]2CCC(=O)C=C2C[C@H]4C)CC1` (relative stereo) [Example 33d, (7α,14β,17α)-17-[[[(trans-4-Butylcyclohexyl)carbonyl]oxy]methyl]-7-methylestr-4-en-3-one], the “Rating (androgenic activity)” value is “+”. The same measure for `C[C@]12CC[C@@H]3C4=C(CC[C@H]3[C@H]1CC[C@H]2CO)CC(=O)CC4` [Example 2, (14β,17α)-17-(Hydroxymethyl)estr-5(10)-en-3-one]: “++”; for `C[C@]12CCC3=C4CCC(=O)C=C4CC[C@H]3[C@H]1CC[C@H]2CO` [Example 3, (14β,17α)-17-(Hydroxymethyl)estra-4,9-dien-3-one]: “+”. Consider `C[C@@H]1CC2=CC(=O)CC[C@@H]2[C@H]2CC[C@]3(C)[C@H](CO)CC[C@@H]3[C@@H]21` [Example 4, (7α,14β,17α)-17-(Hydroxymethyl)-7-methylestr-4-en-3-one], for which the “Rating (androgenic activity)” value is “+++”. The same measure for `C[C@@H]1CC2=CC(=O)CC[C@@H]2[C@H]2CC[C@@]3(C)[C@H](C=C[C@H]3CO)[C@@H]21` [Example 5, (7α,14β,17α)-17-(hydroxymethyl)-7-methylestra-4,15-dien-3-one]: “+++”. The same measure for `C[C@@H]1CC2=CC(=O)CC[C@@H]2[C@H]2CC[C@]3(C)[C@H](CO)CC[C@]3(C)[C@@H]21` [Example 6, (7α,14β,17α)-17-(Hydroxymethyl)-7,14-dimethylestr-4-en-3-one]: “++”.

In the case of `C[C@@H]1CC2=CC(=O)CC[C@@H]2[C@H]2CC[C@]3(C)[C@H](CO)C[C@@H](C)[C@@H]3[C@@H]21` [Example 7, (7α,14β,15β,17α)-17-(Hydroxymethyl)-7,15-dimethylestr-4-en-3-one], the “Rating (androgenic activity)” value is on record as “+”. With `C[C@@H]1CC2=CC(=O)CC[C@@H]2[C@H]2CC[C@@]3(C)[C@H](C[C@@H](C)[C@H]3CO)[C@@H]21` [Example 8, (7α,14β,16α,17α)-17-(Hydroxymethyl)-7,16-dimethylestr-4-en-3-one], the “Rating (androgenic activity)” value is “+”. The same measure for `C[C@@H]1CC2=CC(=O)CC[C@@H]2[C@H]2CC[C@@]3(C)[C@H](C[C@H](C)[C@H]3CO)[C@@H]21` [Example 9, (7α,14β,16β,17α)-17-(Hydroxymethyl)-7,16-dimethylestr-4-en-3-one]: “++”. For `C[C@@H]1CC2=CC(=O)CC[C@@H]2[C@H]2CC[C@@]3(C)[C@H]([C@@H]4C[C@@H]4[C@H]3CO)[C@@H]21` [Example 10, (7α,14β,15β,16β,17α)-17-(Hydroxymethyl)-7-methyl-15,16-methyleneestr-4-en-3-one], the “Rating (androgenic activity)” value is recorded as “++”.

For the compound `CC1CC2=CC(=O)CCC2C2CCC3(C)C(CCC3(C)CO)C12` (stereo not drawn) [Example 11, (7α,14β,17α)-17-(Hydroxymethyl)-7,17-dimethylestr-4-en-3-one], the “Rating (androgenic activity)” value was “+”. As for `C[C@@H]1CC2=CC(=O)CC[C@@H]2[C@H]2CC[C@@]3(C)[C@H](CC[C@]3(F)CO)[C@@H]21` [Example 12, (7α,14β,17α)-17-Fluoro-17-(hydroxymethyl)-7-methylestr-4-en-3-one], the “Rating (androgenic activity)” value is “+++”. For the compound `C[C@@H]1CC2=CC(=O)CC[C@@H]2[C@H]2CC[C@@]3(C)[C@H](CC[C@@]3(O)CO)[C@@H]21` [Example 13, (7α,14β,17β)-17-Hydroxy-17-(hydroxymethyl)-7-methylestr-4-en-3-one], the “Rating (androgenic activity)” value is “+”.

In the case of `CC[C@@H]1CC2=CC(=O)CC[C@@H]2[C@H]2CC[C@]3(C)[C@H](CO)CC[C@@H]3[C@H]12` [Example 14, (7α,14β,17α)-7-Ethyl-17-(hydroxymethyl)estr-4-en-3-one], the “Rating (androgenic activity)” value is given as “+”. The same measure for `C=C[C@@H]1CC2=CC(=O)CC[C@@H]2[C@H]2CC[C@]3(C)[C@H](CO)CC[C@@H]3[C@@H]21` [Example 15, (7α,14β,17α)-7-Ethenyl-17-(hydroxymethyl)estr-4-en-3-one]: “++”; for `CC(O)C1CCC2C3C(C)CC4=CC(=O)CCC4C3CCC12C` [Example 16a, (7α,14β,17α,20S)-20-Hydroxy-7-methyl-19-norpregn-4-en-3-one]: “++”; for `CC(O)C1CCC2C3C(C)CC4=CC(=O)CCC4C3CCC12C` [Example 16b, (7α,14β,17α,20R)-20-Hydroxy-7-methyl-19-norpregn-4-en-3-one]: “+”.

Take `CCC(O)[C@@H]1CC[C@@H]2[C@H]3[C@H](CC[C@@]21C)[C@H]1CCC(=O)C=C1C[C@H]3C` (stereo partly drawn) [Example 17b, [7α,14β,17α(R)]-17-(1-Hydroxypropyl)-7-methylestr-4-en-3-one]: the “Rating (androgenic activity)” value was “+”.

With `C=CC(O)[C@@H]1CC[C@@H]2[C@H]3[C@H](CC[C@@]21C)[C@H]1CCC(=O)C=C1C[C@H]3C` (stereo partly drawn) [Example 18a, [7α,14β,17α(S)]-17-(1-Hydroxy-2-propenyl)-7-methylestr-4-en-3-one], the “Rating (androgenic activity)” value is on record as “+”. For the compound `C#C[C@H](O)[C@@H]1CC[C@@H]2[C@H]3[C@H](CC[C@@]21C)[C@H]1CCC(=O)C=C1C[C@H]3C` [Example 18c, [7α,14β,17α(R)]-17-(1-Hydroxy-2-propynyl)-7-methylestr-4-en-3-one], the “Rating (androgenic activity)” value is recorded as “+”. With `C#C[C@@H](O)[C@@H]1CC[C@@H]2[C@H]3[C@H](CC[C@@]21C)[C@H]1CCC(=O)C=C1C[C@H]3C` [Example 18d, [7α,14β,17α(S)]-17-(1-Hydroxy-2-propynyl)-7-methylestr-4-en-3-one], the “Rating (androgenic activity)” value was “+”. On to `C=CCC(O)C1CCC2C3C(C)CC4=CC(=O)CCC4C3CCC12C` [Example 18g, (7α,14β,17α,20S)-20-Hydroxy-7-methyl-19,21-dinorchola-4,23-dien-3-one], for which the “Rating (androgenic activity)” value is reported as “+”.

Take `C=CC[C@@H](O)[C@@H]1CC[C@@H]2[C@H]3[C@H](CC[C@@]21C)[C@H]1CCC(=O)C=C1C[C@H]3C` [Example 18h, (7α,14β,17α,20R)-20-Hydroxy-7-methyl-19,21-dinorchola-4,23-dien-3-one]: the “Rating (androgenic activity)” value is “+”. The same measure for `CC1CC2=CC(=O)CCC2C2CCC3(C)C(CCC3C(C)(C)O)C12` (stereo not drawn) [Example 19, (7α,14β,17α)-20-Hydroxy-7,20-dimethyl-19-norpregn-4-en-3-one]: “+”; for `CC(O)C1C2CC2C2C3C(C)CC4=CC(=O)CCC4C3CCC12C` [Example 20a, (7α,14β,15β,16β,17α,20S)-20-Hydroxy-7-methyl-15,16-methylene-19-norpregn-4-en-3-one]: “++”. The same measure for `CC(O)C1C2CC2C2C3C(C)CC4=CC(=O)CCC4C3CCC12C` [Example 20b, (7α,14β,15β,16β,17α,20R)-20-Hydroxy-7-methyl-15,16-methylene-19-norpregn-4-en-3-one]: “+”. The same measure for `CC1CC2=CC(=O)CCC2C2CCC3(C)C(C4CC4C3C(C)(C)O)C12` (stereo not drawn) [Example 21, (7α,14β,15β,16β,17α)-20-Hydroxy-7,20-dimethyl-15,16-methylene-19-norpregn4-en-3-one]: “+”.
